According to US20260217701A1, “SELECTIVE BET INHIBITORS AND USES THEREOF” (Tay Therapeutics Limited, priority 2022, published 2026):
“And” between values parts separate entries of the source, which are not always exact repeats. Equal entries are not always repeated.

Test: Dog PK study #3 (Compound A PO once daily 5 days, 5/10/20 mg/kg; PK, body weight, hematology)
Type: in vivo, beagle dogs
Set-up: Plasma Concentration: unit not given here
Method: For the third dog pharmacokinetic study, three solutions of different concentrations of Compound A were prepared in 5% DMSO/15% PEG-400/80% (10% VE-TPGS) as outlined in Table 2E. The Compound A solutions were administered to animals orally (PO) once daily over a five-day period. Body weight was recorded prior to dosing, and detailed clinical observations were made prior to dosing and throughout the study, as needed.
Animals were divided into Day 1 and Day 5 sample collection groups, with animals in the Day 1 collection group having blood samples taken prior to dosing and at 0.25, 0.5, 1, 2, 4, 8, and 24 hours after dosing on day 1. Animals in the Day 5 collection group having blood samples taken prior to dosing and at 0.25, 0.5, 1, 2, 4, 8, and 24 hours after dosing on day 5. Study groups are outlined in Table 3D.
Blood samples (~0.3 mL) were collected on day according to the following schedule (0.25, 0.5, 1, 2, 4, 8, and 24 h) after day 5 administration of Compound A by venipuncture of peripheral veins except for the dosing vein, and EDTA-K2 was used as anticoagulant. Within 30 minutes of collection, the samples were centrifuged at approximately 2000 times g-force for 10 minutes at 4° C. to obtain blood plasma. The plasma samples were immediately divided into two aliquots (~75 μL each), transferred to a cryogenic vial, and stored in a freezer at −75±15° C. prior to analysis.
The concentration of Compound A in the blood plasma was determined through LC-MS as previously described. Briefly, the experiments were conducted on a DMPK-LCMS-14-SMBA Triple Quad 6500 Plus instrument with an ACQUITY UPLC BEH C18 1.7 μm (50×2.1 mm) column. The matrix was male beagle dog plasma potassium (K2) EDTA A gradient of 95% water (0.1% formic acid and 2 mM HCOONH4)/95% acetonitrile (0.1% formic acid and 2 mM HCOONH4) was used as the mobile phase. The sample flow rate was 0.6 mL/min.
The samples were then vortex-mixed for 10 minutes at 800 rpm and centrifuged for 15 minutes at 3220×g at 4° C. 50 μL aliquots of supernatant were transferred to a clean 96-well plate and centrifuged for 5 minutes at 3220×g at 4° C. Samples were then injected into the LC/MS/MS system for quantitative analysis.
The gathered data were used for pharmacokinetic calculations using T1/2, CO, AUClast, AUCinf, MRTinf, Cl, Vss, and Number of Points for Regression as parameters.
The cell composition (hematology) of blood samples was analyzed at day 5. Analyses identified the total number of white blood cells, neutrophils, lymphocytes, monocytes, eosinophils, basophils, and platelets in collected samples.

[1] = Day 1, 5 mg/kg dose PO, individual animals
[2] = Day 1, 10 mg/kg dose PO, individual animals
[3] = Day 1, 20 mg/kg dose PO, individual animals

Cn1cc(-c2ccccc2)c(-c2cn(C)c(=O)c3[nH]c(-c4cnn(C(F)(F)F)c4)cc23)cc1=O [Compound A, 6-methyl-4-(1-methyl-2-oxo-5-phenyl-1,2-dihydropyridin-4-yl)-2-(1-(trifluoromethyl)-1H-pyrazol-4-yl)-1,6-dihydro-7H-pyrrolo[2,3-c]pyridin-7-one]
Plasma Concentration (Day 1, 5 mg/kg dose PO, time 0, individual animals): BQL
Plasma Concentration (Day 1, 5 mg/kg dose PO, time 0.25, individual animals): 9.79 and 28.1
Plasma Concentration (Day 1, 5 mg/kg dose PO, time 0.25, mean): 18.9
Plasma Concentration (Day 1, 5 mg/kg dose PO, time 0.5, individual animals): 206 and 326
Plasma Concentration (Day 1, 5 mg/kg dose PO, time 0.5, mean): 266
Plasma Concentration (Day 1, 5 mg/kg dose PO, time 1, individual animals): 523 and 590
Plasma Concentration (Day 1, 5 mg/kg dose PO, time 1, mean): 557
Plasma Concentration (Day 1, 5 mg/kg dose PO, time 2, individual animals): 587 and 671
Plasma Concentration (Day 1, 5 mg/kg dose PO, time 2, mean): 629
Plasma Concentration (Day 1, 5 mg/kg dose PO, time 4, individual animals): 765 and 686
Plasma Concentration (Day 1, 5 mg/kg dose PO, time 4, mean): 726
Plasma Concentration (Day 1, 5 mg/kg dose PO, time 8, individual animals): 785 and 424
Plasma Concentration (Day 1, 5 mg/kg dose PO, time 8, mean): 605
Plasma Concentration (Day 1, 5 mg/kg dose PO, time 24, individual animals): 166 and 58.7
Plasma Concentration (Day 1, 5 mg/kg dose PO, time 24, mean): 112
AUC0-last [1]: 7398 ng·h/mL
AUCExtra [1]: 6.05%
AUMCExtra [1]: 20.9%
Cl_F [1]: 10.6 mL/min/kg
Cmax [1]: 686 ng/mL
MRT0-last [1]: 7.83 h
Tlast [1]: 24.0 h
Vz_F [1]: 5.16 L/kg
AUC0-last (Day 1, 5 mg/kg dose PO, mean): 9495 ng·h/mL
Tlast (Day 1, 5 mg/kg dose PO, mean): 24.0 h
Plasma Concentration (Day 1, 10 mg/kg dose PO, time 0, individual animals): BQL
Plasma Concentration (Day 1, 10 mg/kg dose PO, time 0.25, individual animals): 310 and 258
Plasma Concentration (Day 1, 10 mg/kg dose PO, time 0.25, mean): 284
Plasma Concentration (Day 1, 10 mg/kg dose PO, time 0.5, individual animals): 948 and 954
Plasma Concentration (Day 1, 10 mg/kg dose PO, time 0.5, mean): 951
Plasma Concentration (Day 1, 10 mg/kg dose PO, time 1, individual animals): 1330 and 1260
Plasma Concentration (Day 1, 10 mg/kg dose PO, time 1, mean): 1295
Plasma Concentration (Day 1, 10 mg/kg dose PO, time 2, individual animals): 1820 and 1450
Plasma Concentration (Day 1, 10 mg/kg dose PO, time 2, mean): 1635
Plasma Concentration (Day 1, 10 mg/kg dose PO, time 4, individual animals): 2010 and 1380
Plasma Concentration (Day 1, 10 mg/kg dose PO, time 4, mean): 1695
Plasma Concentration (Day 1, 10 mg/kg dose PO, time 8, individual animals): 1080 and 860
Plasma Concentration (Day 1, 10 mg/kg dose PO, time 8, mean): 970
Plasma Concentration (Day 1, 10 mg/kg dose PO, time 24, individual animals): 138 and 134
Plasma Concentration (Day 1, 10 mg/kg dose PO, time 24, mean): 136
AUC0-last [2]: 15568 ng·h/mL
AUC(0-inf) [2]: 16719 ng·h/mL
AUCExtra [2]: 5.08% and 6.88%
AUMCExtra [2]: 18.2% and 23.5%
Cl_F [2]: 8.12 mL/min/kg and 9.97 mL/min/kg
Cmax [2]: 1450 ng/mL
MRT0-inf [2]: 9.54 h
MRT0-last [2]: 7.84 h
Tlast [2]: 24.0 h
T½ [2]: 5.95 h
Vz_F [2]: 3.68 L/kg and 5.14 L/kg
AUC0-last (Day 1, 10 mg/kg dose PO, mean): 17527 ng·h/mL
AUCExtra (Day 1, 10 mg/kg dose PO, mean): 5.98%
AUMCExtra (Day 1, 10 mg/kg dose PO, mean): 20.9%
Cl_F (Day 1, 10 mg/kg dose PO, mean): 9.04 mL/min/kg
Tlast (Day 1, 10 mg/kg dose PO, mean): 24.0 h
Vz_F (Day 1, 10 mg/kg dose PO, mean): 4.41 L/kg
Plasma Concentration (Day 1, 20 mg/kg dose PO, time 0, individual animals): BQL
Plasma Concentration (Day 1, 20 mg/kg dose PO, time 0.25, individual animals): 413 and 438
Plasma Concentration (Day 1, 20 mg/kg dose PO, time 0.25, mean): 426
Plasma Concentration (Day 1, 20 mg/kg dose PO, time 0.5, individual animals): 2090 and 1440
Plasma Concentration (Day 1, 20 mg/kg dose PO, time 0.5, mean): 1765
Plasma Concentration (Day 1, 20 mg/kg dose PO, time 1, individual animals): 3430 and 3440
Plasma Concentration (Day 1, 20 mg/kg dose PO, time 1, mean): 3435
Plasma Concentration (Day 1, 20 mg/kg dose PO, time 2, individual animals): 3620 and 5590
Plasma Concentration (Day 1, 20 mg/kg dose PO, time 2, mean): 4605
Plasma Concentration (Day 1, 20 mg/kg dose PO, time 4, individual animals): 4330 and 6000
Plasma Concentration (Day 1, 20 mg/kg dose PO, time 4, mean): 5165
Plasma Concentration (Day 1, 20 mg/kg dose PO, time 8, individual animals): 3170 and 4570
Plasma Concentration (Day 1, 20 mg/kg dose PO, time 8, mean): 3870
Plasma Concentration (Day 1, 20 mg/kg dose PO, time 24, individual animals): 394 and 1810
Plasma Concentration (Day 1, 20 mg/kg dose PO, time 24, mean): 1102
AUC0-last [3]: 86304 ng·h/mL
AUC(0-inf) [3]: 52608 ng·h/mL and 116806 ng·h/mL
AUCExtra [3]: 6.10% and 26.1%
AUMCExtra [3]: 20.3% and 58.8%
Cl_F [3]: 6.34 mL/min/kg and 2.85 mL/min/kg
